Measured values taken from article PMC6680806, “Preparation of Retinoyl-Flavonolignan Hybrids and Their Antioxidant Properties” (Antioxidants, 2019).
Values joined by “and” are separate entries in the source; they are usually repeats but may differ in a detail not shown here. Equal values may be shown once.

Assays:
HepG2 cell line = test: Cellular antioxidant activity (CAA); assay type: cell-based; conditions: Homo sapiens; HepG2 cells, DCFH-DA/AAPH; > = no activity noted at the highest concentration tested
Procedure: For cellular antioxidant activity (CAA) assay, the HepG2 cell line (ATCC, CCL-23TM, USA) was cultivated in Eagle’s Minimum Essential Medium (Sigma-Aldrich, USA) supplemented with 10% of foetal bovine serum, 2 mM L-glutamine and 1× Antibiotic Antimycotic Solution (Sigma-Aldrich, St. Louis, MO, USA) in a CO2 incubator (5% CO2, 37 °C, Thermo Fisher Scientific, Waltham, MA, USA) and passaged 2×/week using trypsin-EDTA solution. For the experiments, 100 µL of the cells (1 × 10^6 cells/mL, Cellometer Auto T4 Bright Field Cell Counter, Nexcelom Bioscience, Lawrence, MA, USA) were split into 96-well plates. After 24 h, the cells were washed 3× with PBS (MultiFlo Multi-Mode Dispenser, BioTek, USA) and Dulbecco’s Modified Eagle’s Medium (Sigma-Aldrich, St. Louis, MO, USA) supplemented with the 2′,7′-dichlorodihydrofluorescein diacetate (DCFH-DA, 0.0125 mg/mL) was added to each well together with the tested samples in the concentration range 0–500 µM. After incubation (1 h, CO2 incubator, 37 °C), the medium was manually replaced for AAPH solution (0.16 mg/mL) and the fluorescence (ex./em. 485/540 nm) was recorded immediately for 2 h with 5 min steps.
(§1) The main disadvantage of DPPH scavenging assay is the use of an unnatural radical. Such methods based on competitive probe reactions or indirect methods based on persistent radicals should only be used for preliminary screening purposes. Thus, to better characterize the potential of the obtained conjugates in terms of their biological activity, a series of simple, rapid, sensitive and reproducible biochemical antioxidant assays including FRAP, CUPRAC and ORAC [38] and a more relevant cellular antioxidant activity (CAA [37]) was measured (Table 2). […] Therefore, in this study, we compared two methods with the same mechanism of action: ORAC assay was performed as a classical biochemical method presenting the ability of tested compounds to quench peroxyl radicals generated from AAPH to protect fluorescein from oxidation. This assay serves better as a physical description of the tested compounds [37]. To reflect biological aspect, CAA was measured using the liver carcinoma HepG2 cell line where the compound must enter the cell to fulfil its role as an antioxidant. The CAA assay partially includes the bioavailability, aspects of uptake and metabolism.

DPPH radical scavenging = assay type: biochemical; conditions: 20 µM DPPH in methanol, 30 min, 25 °C, mean ± standard error
Procedure: The radical scavenging activity of the prepared conjugates, their parent compounds, their equimolar mixtures and retinol was evaluated as their capacity to scavenge 1,1-diphenyl-2-picrylhydrazyl radicals (DPPH, Sigma-Aldrich, Prague, Czech Republic), as described previously with minor modifications. Briefly, 15 µL of the tested substance (final concentration 0–20 mM in DMSO) was mixed with 285 µL of a freshly prepared methanolic DPPH solution (final concentration 20 µM) in a microtiter plate well. After 30 min at 25 °C, the absorbance at 517 nm was measured. The activity was expressed as the concentration of the compound required for reducing the absorbance to 50% (IC50) of its initial value.

[1] = Cupric reducing antioxidant capacity (CUPRAC); assay type: biochemical; conditions: mean ± standard error; values marked f: measurement disturbed by the formation of a precipitate
Procedure: (§2) Ferric reducing antioxidant power (FRAP) and cupric reducing antioxidant capacity (CUPRAC) were measured using kits from Bioquochem (Llanera-Asturias, Spain) according to the manufacturer´s instructions and expressed as trolox equivalents (TE). To determine oxygen radical absorption capacity (ORAC), 73 µL of fluorescein (1.8 mg/L) solution in phosphate buffered saline (PBS, pH 7.4) was mixed with 2 µL of the samples (0–20 µM) in the wells of a 96-well plate. After 15 min incubation (37 °C), 25 µL of freshly prepared 2,2′-azo-bis(2-amidinopropane) dihydrochloride (AAPH, 60 mg/mL) was added to each well except for the negative control, where AAPH was replaced for PBS. The fluorescence (ex./em., 485/535 nm) was recorded immediately and for the next 2 h with the measurement step for 5 min using a microplate reader (SpectraMax i3 Multi-Mode Detection Platform, Molecular Devices, Wokingham, UK).
(§3) The oxidations in living organism caused by free radicals are usually undesirable processes damaging such important biomolecules as DNA, proteins and lipids. The application of antioxidants is one of the most straightforward means to protect these biomolecules from oxidative stress. Many assays are available for determination of antioxidant potential in vitro. These assays are based on the reduction of stable radicals (DPPH), on the competitive bleaching of a probe (ORAC) or on the reduction of iron ions (CUPRAC, FRAP). CUPRAC test is very similar to FRAP assay but is based on the reduction of Cu^2+ in a neutral pH, while FRAP test is based on Fe^3+ in acidic pH. As each assay suffers from some limitations, a set of antioxidant tests was used here to combine more parameters.

[2] = Ferric reducing antioxidant power (FRAP); assay type: biochemical; conditions: mean ± standard error
Procedure: as §2, §3

[3] = Oxygen radical absorption capacity (ORAC); assay type: biochemical; conditions: fluorescein/AAPH, PBS pH 7.4, 37 °C; mean ± standard error
Procedure: as §2, §1

[4] = Stability of sample during ORAC and CAA measurement; assay type: physicochemical
Procedure: Dose-dependent curves were obtained in both ORAC and CAA assay for single compounds resulting in IC50 determination (Table 2). In contrast, no anti-oxidant activity of the conjugates was detected in liver cells in all the concentration range tested up to 50 or 500 µM. In fact, such a large concentration is not expectable in plasma.

[5] = parent compound alone, read-out: DPPH radical scavenging activity (IC50), parent compound
[6] = covalent retinoyl conjugate, read-out: DPPH radical scavenging activity (IC50), conjugate with retinoic acid

| Structure (SMILES) | IC50 (HepG2 cell line) [µM] | IC50 (DPPH radical scavenging; [5]) | CUPRAC (cupric reducing antioxidant capacity) [1] | FRAP (ferric-reducing antioxidant potential, trolox equivalents) [2] | IC50 [3] [µM] | IC50 (DPPH radical scavenging; [6]) [µM] | Stability during ORAC and CAA measurement [4] |
| --- | --- | --- | --- | --- | --- | --- | --- |
| COc1cc([C@H]2Oc3cc([C@H]4Oc5cc(O)cc(O)c5C(=O)[C@@H]4O)ccc3O[C@@H]2CO)ccc1O [3a, silybin A] | 10 ± 0.7 | 818 ± 22 µM | 0.20 ± 0.00 TE | 0.278 ± 0.005 TE | 8.5 ± 0.4 |  |  |
| COc1cc(C2Oc3cc([C@H]4Oc5cc(O)cc(O)c5C(=O)[C@@H]4O)ccc3OC2CO)ccc1O (stereo partly drawn) [3ab, Silybin] | 11.8 ± 0.3 | 472 ± 16 µM | 0.17 ± 0.00 TE | 0.335 ± 0.006 TE | 7.8 ± 0.7 |  |  |
| COc1cc([C@@H]2Oc3cc([C@H]4Oc5cc(O)cc(O)c5C(=O)[C@@H]4O)ccc3O[C@H]2CO)ccc1O [3b, silybin B] | 6.8 ± 0.5 | 659 ± 29 µM | 0.16 ± 0.02 TE | 0.268 ± 0.009 TE | 8 ± 0.3 |  |  |
| COc1cc([C@H]2Oc3ccc([C@H]4Oc5cc(O)cc(O)c5C(=O)[C@@H]4O)cc3O[C@@H]2CO)ccc1O [5a, isosilybin A] | > 100 | 783 ± 9 µM | 0.16 ± 0.02 TE | 0.280 ± 0.006 TE | 4.3 ± 1.1 |  |  |
| COc1cc([C@H]2Oc3cc([C@H]4Oc5cc(OC(=O)/C=C(C)/C=C/C=C(C)/C=C/C6=C(C)CCCC6(C)C)cc(O)c5C(=O)[C@@H]4O)ccc3O[C@@H]2CO)ccc1O [6a, Silybin A-7-O-retinoate] | > 50 |  | 0.21 ± 0.02 TE | 0.038 ± 0.002 *^,# TE |  | 379 | unstable and decomposed |
| COc1cc(C2Oc3cc([C@H]4Oc5cc(OC(=O)/C=C(C)/C=C/C=C(C)/C=C/C6=C(C)CCCC6(C)C)cc(O)c5C(=O)[C@@H]4O)ccc3OC2CO)ccc1O (stereo partly drawn) [6ab, Silybin-7-O-retinoate] | > 500 |  | 0.22 ± 0.01 TE | 0.03 ± 0.02 *^,# TE | 91 ± 4 | 666 |  |
| COc1cc([C@@H]2Oc3cc([C@H]4Oc5cc(OC(=O)/C=C(C)/C=C/C=C(C)/C=C/C6=C(C)CCCC6(C)C)cc(O)c5C(=O)[C@@H]4O)ccc3O[C@H]2CO)ccc1O [6b, Silybin B-7-O-retinoate] | > 500 |  | 0.04 ± 0.01^f TE | 0.010 ± 0.001 *^,# TE | 230 ± 8 | 540 |  |
| COc1cc([C@H]2Oc3ccc([C@H]4Oc5cc(OC(=O)/C=C(C)/C=C/C=C(C)/C=C/C6=C(C)CCCC6(C)C)cc(O)c5C(=O)[C@@H]4O)cc3O[C@@H]2CO)ccc1O [8a, Isosilybin A-7-O-retinoate] | > 500 |  | 0.11 ± 0.01^f TE | 0.022 ± 0.003 *^,# TE | 174 ± 7 | 2360 |  |
| CC1=C(/C=C/C(C)=C/C=C/C(C)=C/CO)C(C)(C)CCC1 [compound 1, Retinol] | 1270 ± 147 | 1480 µM and 745 µM | 0.09 ± 0.01^f TE | 1.76 ± 0.04 TE | 169 ± 12 |  |  |
| CC1=C(/C=C/C(C)=C/C=C/C(C)=C/C(=O)O)C(C)(C)CCC1 [compound 2, Retinoic acid] | 460 ± 211 | 745 µM and 1480 µM | 0.10 ± 0.02^f TE | 0.62 ± 0.02 TE | 13 ± 2 |  |  |
| COc1cc(C2Oc3cc(-c4oc5cc(O)cc(O)c5c(=O)c4O)ccc3OC2CO)ccc1O (stereo not drawn) [compound 4, 2,3-dehydrosilybin] | 10.9 ± 0.5 | 19.2 ± 0.3 µM | 0.25 ± 0.00 TE | 4.06 ± 0.05 TE | 9.6 ± 0.4 |  |  |
| COc1cc(C2Oc3cc(-c4oc5cc(O)cc(O)c5c(=O)c4OC(=O)/C=C(C)/C=C/C=C(C)/C=C/C4=C(C)CCCC4(C)C)ccc3OC2CO)ccc1O (stereo not drawn) [compound 7, 2,3-Dehydrosilybin AB-3-O-retinoate] | > 500 |  | 0.07 ± 0.02^f TE | 0.034 ± 0.005 *^,# TE | 130 ± 7 | 734 |  |
